Laboratory results from patent publication US20250170246A1 (priority 2022, published 2025).
“Also recorded” adds a separate entry of the source.

Tests used:
[1] = cited from earlier work
SARS CoV-2 (WA1 strain) [2] = experiment: SARS CoV-2-infected human precision-cut lung slices, IL-8 in culture supernatants; type: cell-based; settings: 100 μM CDP-choline added daily, 4×10^5 TCID50 SARS CoV-2 WA1, 2 and 3 dpi, vs. saline
Description: CDP-choline reduces SARS CoV-2-induced inflammation in vitro.

[3] = administered parenterally; cited from earlier work
[4] = ultimately excreted in expired CO2 and via urine; cited from earlier work
SARS CoV-2 (WA1 strain) [5] = type: in vivo, K18-hACE2-Tg mice
[6] = multiple human clinical trials; cited from earlier work
influenza = experiment: Antiviral effect against influenza
[7] = male K18-hACE2-Tg mice, 5 mg/kg i.p. daily, 4 dpi, relative to infected saline-treated mice
[8] = male K18-hACE2-Tg mice, 10^5 TCID50 SARS CoV-2 WA1, 5 mg/kg i.p. daily 1-3 dpi, read at 4 dpi

What does the source list for `C[N+](C)(C)CCOP(=O)(O)OP(=O)(O)OC[C@H]1O[C@@H](n2ccc(N)nc2=O)C(O)C1O` (stereo partly shown) [CDP-choline, Cytidine diphosphate-choline]?
aqueous solubility [1]: high; production of IL-8 by SARS CoV-2-infected human precision-cut lung slices (SARS CoV-2 (WA1 strain) [2]): reduced production; also recorded: significantly reduced; also recorded: attenuated; bioavailability [3]: excellent; metabolism of CDP-choline not incorporated into phospholipids [4]: rapidly metabolized into cytidine and choline; reduction of whole lung ccl-3/mip-1a gene expression (SARS CoV-2 (WA1 strain) [5]; CoV-2-infected male K18-hACE2-Tg mice): > 5 fold; reduction of whole lung il-6 gene expression (SARS CoV-2 (WA1 strain) [5]; [7]): > 5 fold; reduction of whole lung kc/cxcl-1 gene expression (SARS CoV-2 (WA1 strain) [5]; [7]): > 5 fold; SARS CoV-2 replication in the lungs (in words) (SARS CoV-2 (WA1 strain) [5]; male K18-hACE2-Tg mice, 5 mg/kg i.p. daily, 4 dpi, vs. saline, 5 mg/kg): significantly reduces; also recorded: significantly decreased; SARS CoV-2-induced bradycardia (heart rate) (SARS CoV-2 (WA1 strain) [5]; [8]): prevents development; also recorded: completely prevented; also recorded: attenuated; SARS CoV-2-induced hypoxemia (carotid arterial % O2 saturation, SaO2) (SARS CoV-2 (WA1 strain) [5]; [8]): prevents development; also recorded: completely prevented; also recorded: reversed; reduction of viral replication (SARS CoV-2 (WA1 strain) [5]; male K18-hACE2-Tg mice, daily post-infection CDP-choline): 0.5 logs; safety in human clinical trials [6]: safe; antiviral effect against influenza (influenza): no such antiviral effect
